Experimental findings from patent US9187472B2 (AbbVie Inc., priority 2012, dated 2015) are described below.

One assay addresses NAMPT (Homo sapiens, UniProt P43490). Put plainly: TR-FRET Binding Assay of NAMPT with PRPP. The settings on record: with 200 μM PRPP and 2.5 mM ATP; 2 nM NAMPT, 2 nM probe, 16 hours equilibration. Summed up:
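Substrate-containing variant: 200 μM PRPP plus 2.5 mM ATP are added to 2 nM NAMPT and 2 nM probe, with a 16-hour incubation ahead of TR-FRET reading.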
For orientation: Time-resolved FRET reads energy transfer from a long-lived donor to a nearby acceptor.

Assay [1] addresses NAMPT (human, recombinant, C-terminally His-tagged) (Homo sapiens, UniProt P43490). As to the kind of experiment: Time-Resolved Fluorescence Resonance Energy Transfer (TR-FRET) Binding Assay of NAMPT. The settings on record: without substrates; 6.8 nM NAMPT, 200 nM probe, 3 hours equilibration. Put shortly: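 In a displacement format, the nicotinamide-site tracer at 200 nM competed with test compound for 6.8 nM enzyme detected via 1 nM terbium anti-His antibody; incubation lasted 3 hours at room temperature in 50 mM HEPES pH 7.5, 100 mM NaCl. Normalized 520/495 nm emission ratios gave IC50 values.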

For the next assay, the system named is PC3 cells. Put plainly: NAMPT Cell Proliferation Assay. Type of assay: cell-based. The settings on record: Homo sapiens, PC-3, 120 h, 5 days incubation, cell viability by Cell Titer Glo. Summed up:
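Proliferation of PC3 cells treated 5 days with a 10-fold compound series (top 10 μM) was quantified by Cell Titer Glo luminescence; IC50s were fitted from percent inhibition.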
A general note: ATP-based viability assays read luminescence as a measure of living cells.

Chain of NAMPT (human, recombinant, C-terminally His-tagged) (P43490 whole entry): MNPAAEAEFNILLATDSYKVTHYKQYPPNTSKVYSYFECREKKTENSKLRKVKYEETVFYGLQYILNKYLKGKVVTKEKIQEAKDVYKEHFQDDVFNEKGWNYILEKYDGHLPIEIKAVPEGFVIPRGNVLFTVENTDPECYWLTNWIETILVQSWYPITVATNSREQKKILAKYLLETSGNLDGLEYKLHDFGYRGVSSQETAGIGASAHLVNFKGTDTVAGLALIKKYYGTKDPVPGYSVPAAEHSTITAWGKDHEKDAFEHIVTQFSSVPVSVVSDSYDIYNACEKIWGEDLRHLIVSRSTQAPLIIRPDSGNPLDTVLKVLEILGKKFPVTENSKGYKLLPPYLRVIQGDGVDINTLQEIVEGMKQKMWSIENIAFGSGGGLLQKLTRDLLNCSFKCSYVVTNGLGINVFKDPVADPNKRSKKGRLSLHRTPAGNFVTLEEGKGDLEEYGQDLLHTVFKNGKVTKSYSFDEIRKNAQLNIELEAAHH
Chain of NAMPT (P43490 whole entry): as above

Usually IC50 stands for the concentration that gives 50% inhibition. For the molecule `O=C(NCc1ccn2ccnc2c1)c1ccc(C2(NC(=O)C3CCOCC3)CCC2)s1` [Example 473, N-(1-{5-[(imidazo[1,2-a]pyridin-7-ylmethyl)carbamoyl]thiophen-2-yl}cyclobutyl)tetrahydro-2H-pyran-4-carboxamide], the IC50 was 1.01 nM on NAMPT, more than 10000 nM in assay [1] and 7850 nM in the assay with PC3 cells.

With `CCC(C)CC(=O)N1CC(c2ccc(C(=O)NCc3ccn4ccnc4c3)cc2)C1` (stereo not drawn) [Example 630, N-(imidazo[1,2-a]pyridin-7-ylmethyl)-4-[1-(3-methylpentanoyl)azetidin-3-yl]benzamide], the values for the IC50 (at NAMPT; in assay [1]; with PC3 cells) were 0.563 nM, 266 nM and 40.4 nM, respectively.

As to `CC(C)[C@@H]1COC(=O)N1c1ccc(C(=O)NCc2ccn3ccnc3c2)s1` [Example 250, N-(imidazo[1,2-a]pyridin-7-ylmethyl)-5-[(4R)-2-oxo-4-(propan-2-yl)-1,3-oxazolidin-3-yl]thiophene-2-carboxamide], the IC50 at NAMPT was 0.23 nM; in assay [1], 20.5 nM; in the assay with PC3 cells it was 0.675 nM.

`O=C(NCc1ccn2ccnc2c1)Nc1ccc(O[C@@H]2CCN(C(=O)c3cccc(F)c3)C2)cc1` [Example 690, 1-(4-{[(3R)-1-(3-fluorobenzoyl)pyrrolidin-3-yl]oxy}phenyl)-3-(imidazo[1,2-a]pyridin-7-ylmethyl)urea]: the figures for the IC50 (on NAMPT; in assay [1]; with PC3 cells) were 1.22 nM, 64.3 nM and 13.8 nM, respectively.

Regarding `O=C(NCc1ccn2ccnc2c1)c1ccc(C2CCN(C(=O)c3ccc(F)cc3)CC2)cc1` [Example 508, 4-[1-(4-fluorobenzoyl)piperidin-4-yl]-N-(imidazo[1,2-a]pyridin-7-ylmethyl)benzamide], the IC50 was 0.481 nM at NAMPT, 257 nM in assay [1] and 28.6 nM in the assay with PC3 cells.

On to `O=C(NCc1ccn2ccnc2c1)c1ccc(C2CCN(C(=O)C3CCCC3)C2)cc1` (stereo not drawn) [Example 583, 4-[1-(cyclopentylcarbonyl)pyrrolidin-3-yl]-N-(imidazo[1,2-a]pyridin-7-ylmethyl)benzamide], for which the 50% inhibitory concentration (IC50) on NAMPT came to 0.799 nM; in assay [1] it was 1120 nM; with PC3 cells, 189 nM.

Turning to `O=C(NCc1ccn2ccnc2c1)c1ccc(C2CCN(C(=O)[C@H]3CCOC3)CC2)cc1` [Example 308, N-(imidazo[1,2-a]pyridin-7-ylmethyl)-4-{1-[(3S)-tetrahydrofuran-3-ylcarbonyl]piperidin-4-yl}benzamide], the figures for the IC50 (on NAMPT; in assay [1]; in the assay with PC3 cells) were 0.169 nM, 306 nM and 29.5 nM, respectively.

As to `CC(C)CS(=O)(=O)N1CC=C(c2ccc(C(=O)NCc3ccn4ccnc4c3)o2)CC1` [Example 753, N-(imidazo[1,2-a]pyridin-7-ylmethyl)-5-{1-[(2-methylpropyl)sulfonyl]-1,2,3,6-tetrahydropyridin-4-yl}furan-2-carboxamide], the IC50 is 0.783 nM at NAMPT, 403 nM in assay [1] and 74.6 nM in the assay on PC3 cells.

Regarding `Cc1ncc(CC(=O)N(CC2CCCO2)c2ncc(C(=O)NCc3ccc4nccn4c3)s2)s1` (stereo not drawn) [Example 123, N-(imidazo[1,2-a]pyridin-6-ylmethyl)-2-{[(2-methyl-1,3-thiazol-5-yl)acetyl](tetrahydrofuran-2-ylmethyl)amino}-1,3-thiazole-5-carboxamide], the values for the IC50 (at NAMPT; in assay [1]; with PC3 cells) were 2.57 nM, 133 nM and 7.43 nM, respectively.

As to `O=C(NCc1ccn2ccnc2c1)c1ccc(-c2cnn(CC3CCCO3)c2)o1` (stereo not drawn) [Example 476, N-(imidazo[1,2-a]pyridin-7-ylmethyl)-5-[1-(tetrahydrofuran-2-ylmethyl)-1H-pyrazol-4-yl]furan-2-carboxamide], the IC50 at NAMPT came to 0.194 nM; in assay [1] it was 70.8 nM; with PC3 cells it was 9.42 nM.

In the case of `CC(C)Cn1cc(-c2ccc(C(=O)NCc3cn4ccnc4cn3)s2)cn1` [Example 754, N-(imidazo[1,2-a]pyrazin-6-ylmethyl)-5-[1-(2-methylpropyl)-1H-pyrazol-4-yl]thiophene-2-carboxamide], the results for the 50% inhibitory concentration (IC50) (at NAMPT; in assay [1]; with PC3 cells) were 0.51 nM, 4.92 nM and 1.25 nM, respectively.

For the molecule `CC(C)C(=O)N1CC(Oc2ccc(C(=O)NCc3ccn4ccnc4c3)cc2)C1` [Example 558, N-(imidazo[1,2-a]pyridin-7-ylmethyl)-4-{[1-(2-methylpropanoyl)azetidin-3-yl]oxy}benzamide], the IC50 at NAMPT amounted to 0.352 nM; in assay [1], 1410 nM; in the assay with PC3 cells, 1170 nM.

For the molecule `CC(C)C(=O)N1CCC(c2ccc(NC(=O)NCc3ccn4ccnc4c3)cc2)C1` (stereo not drawn) [Example 380, 1-(imidazo[1,2-a]pyridin-7-ylmethyl)-3-{4-[1-(2-methylpropanoyl)pyrrolidin-3-yl]phenyl}urea], the IC50 on NAMPT is 0.251 nM; in assay [1] it was 179 nM; in the assay with PC3 cells it was 40 nM.

As to `CC(C)Cc1ccc(-c2ccc(C(=O)NCc3ccn4ccnc4c3)o2)cc1` [Example 747, N-(imidazo[1,2-a]pyridin-7-ylmethyl)-5-[4-(2-methylpropyl)phenyl]furan-2-carboxamide], the IC50 on NAMPT amounted to 1.75 nM; in assay [1], 435 nM; in the assay with PC3 cells, 942 nM.

`CC(C)C[C@H](NC(=O)C1CC1)c1ccc(C(=O)NCc2ccn3ccnc3c2)s1` [Example 687, 5-{(1S)-1-[(cyclopropylcarbonyl)amino]-3-methylbutyl}-N-(imidazo[1,2-a]pyridin-7-ylmethyl)thiophene-2-carboxamide]: the values for the IC50 (on NAMPT; in assay [1]; in the assay on PC3 cells) were 1.16 nM, 97.3 nM and 2.19 nM, respectively.

In the case of `O=C(NCc1ccn2ccnc2c1)c1ccc(C2CCN(C(=O)c3ccsc3)C2)cc1` (stereo not drawn) [Example 617, N-(imidazo[1,2-a]pyridin-7-ylmethyl)-4-[1-(thiophen-3-ylcarbonyl)pyrrolidin-3-yl]benzamide], the half-maximal inhibitory concentration (IC50) is 0.645 nM on NAMPT, 164 nM in assay [1] and 82.6 nM in the assay with PC3 cells.

`CC(C)CC(=O)Nc1ncc(C(=O)NCc2ccc3nccn3c2)s1` [Example 137, N-(imidazo[1,2-a]pyridin-6-ylmethyl)-2-[(3-methylbutanoyl)amino]-1,3-thiazole-5-carboxamide]: the IC50 on NAMPT was 7.21 nM; in assay [1], 315 nM; in the assay on PC3 cells it was 225 nM.

`O=C(NCc1ccn2ccnc2c1)c1ccc(C2CCN(C(=O)c3cccs3)CC2)cc1` [Example 503, N-(imidazo[1,2-a]pyridin-7-ylmethyl)-4-[1-(thiophen-2-ylcarbonyl)piperidin-4-yl]benzamide]: the IC50 on NAMPT is 0.277 nM; in assay [1], 53.2 nM; with PC3 cells, 4.21 nM.

For the molecule `O=C(NCc1ccn2ccnc2c1)c1cc(Cl)c(-c2cnn(C[C@H]3CCOC3)c2)s1` [Example 579, 4-chloro-N-(imidazo[1,2-a]pyridin-7-ylmethyl)-5-{1-[(3R)-tetrahydrofuran-3-ylmethyl]-1H-pyrazol-4-yl}thiophene-2-carboxamide], the figures for the IC50 (at NAMPT; in assay [1]; in the assay on PC3 cells) were 0.634 nM, 488 nM and 758 nM, respectively.

With `O=C(NCc1ccn2ccnc2c1)Nc1ccc(C2CCN(C(=O)C3CCOCC3)CC2)cc1` [Example 221, 1-(imidazo[1,2-a]pyridin-7-ylmethyl)-3-{4-[1-(tetrahydro-2H-pyran-4-ylcarbonyl)piperidin-4-yl]phenyl}urea], the results for the IC50 (at NAMPT; in assay [1]; in the assay on PC3 cells) were 0.352 nM, 120 nM and 7.82 nM, respectively.
